Experimental data published in patent US20260207704A1, “STAPLED PEPTIDES AND METHODS THEREOF” (priority 2022, published 2026).

These compounds were tested on DLD1 reporter (assay: reporter assay (DLD1 reporter assay)). Conditions: read-out: DLD1 4% Abs IC50; DLD1 4%.
Type: cell-based
Description: Various technologies can be utilized for characterizing and/or assessing provided technologies (e.g., agents (e.g., various peptides), compositions, methods, etc.) in accordance with the present disclosure. As described herein, in some embodiments, a useful technology is or comprises fluorescence polarization. In some embodiments, a useful technology assesses LogP or LogD. In some embodiments, a useful technology is or comprises a CHI LogD assay. In some embodiments, a useful technology assesses solubility. In some embodiments, a useful technology is or comprises NanoBRET. In some embodiments, a useful technology is or comprises a reporter assay (e.g., DLD1 reporter assay). In some embodiments, a useful technology is or comprises alphascreen. Certain useful protocols are described in the Examples. Those skilled in the art appreciate that suitable adjustments may be made to such protocols, e.g., according to specific conditions, agents, purposes, etc.
Various technologies can be utilized to assess technologies of the present disclosure. For example, in some embodiments, solubility, LogD, interactions with targets, etc. of various agents such as stapled peptides were assessed using technologies described in WO 2022/261257 (e.g., those in its Examples). In some embodiments, solubility, shake flask LogD, and binding to beta-catenin were assessed. In some embodiments, an assay for assessing interactions, e.g., with beta-catenin, was fluorescence polarization as described in WO 2022/261257. In some embodiments, an assay was Nano-BRET target engagement assay that assessed beta-catenin/TCF4 engagement as described in WO 2022/261257. In some embodiments, an assay was a reporter assay as reported in Example 4 of WO 2022/261257. In some embodiments, an assay was a COLO320DM proliferation assay as reported in Example 4 of WO 2022/261257.
Compound `CC(=O)N1CCC[C@]12CC=CCCCC1(CCCC=CCCCOC(=O)N3CC[C@@]4(C3)NC(=O)[C@H](Cc3cn(nn3)CCCC[C@@H](C(N)=O)NC(=O)[C@H](Cc3csc5ccccc35)NC(=O)[C@H](Cc3ccsc3)NC4=O)NC(=O)[C@H](Cc3ccccc3)NC(=O)[C@H](C)NC(=O)[C@H](C)NC(=O)[C@H](Cc3cccc(C(=O)O)c3)NC(=O)[C@H](CC(=O)O)NC1=O)NC(=O)[C@H](CC(C)(C)C)NC(=O)[C@H](CC(=O)O)NC2=O` (stereo partly drawn) [I-24, Ac-PL3-Asp-Npg-B5-Asp-3COOHF-Ala-Ala-Phe-sAla*3-PyrS2-3Thi-BztA-TriAzLys*3-NH2] has an IC50 of 1000 to 5000 nM. `CC(=O)N1CCC[C@]12CC=CCCCC1(CCCC=CCCCOC(=O)N3CC[C@@]4(C3)NC(=O)[C@H](CCCCNC(=O)CC[C@@H](C(=O)N[C@@H](CC(C)C)C(N)=O)NC(=O)[C@H](Cc3csc5ccccc35)NC(=O)[C@H](Cc3ccccc3C(F)(F)F)NC4=O)NC(=O)[C@H](Cc3ccccc3)NC(=O)[C@H](C)NC(=O)[C@H](C)NC(=O)[C@H](CN(CC(=O)O)CC(F)(F)F)NC(=O)[C@H](CC(=O)O)NC1=O)NC(=O)[C@H](CC(C)(C)C)NC(=O)[C@H](CC(=O)O)NC2=O` (relative stereo) [I-128, Ac-PL3-Asp-Npg-B5-Asp-TfeGA-Ala-Ala-Phe-Lys*3-PyrS2-2F3MeF-BztA-GlnR*3-Leu-NH2] was tested, and the IC50 was 1000 to 5000 nM. `CC(=O)N1CCC[C@]12CC=CCCCC1(CCCC=CCCCOC(=O)N3CC[C@@]4(C3)NC(=O)[C@H](CCCCN(C(C)C)C(=O)CCC[C@@H](C(=O)N[C@@H](C)C(N)=O)NC(=O)[C@H](Cc3csc5ccccc35)NC(=O)[C@H](Cc3ccsc3)NC4=O)NC(=O)[C@H](Cc3ccccc3)NC(=O)[C@H](C)NC(=O)[C@H](C)NC(=O)[C@H](Cc3cccc(C(=O)O)c3)NC(=O)[C@H](CC(=O)O)NC1=O)NC(=O)[C@H](CC(C)(C)C)NC(=O)[C@H](CC(=O)O)NC2=O` (relative stereo) [I-187, Ac-PL3-Asp-Npg-B5-Asp-3COOHF-Ala-Ala-Phe-iPrLys*3-PyrS2-3Thi-BztA-hGlnR*3-Ala-NH2] was tested, and the IC50 was > 5000 nM. Work on `CC(=O)N1CCC[C@]12CC=CCCCC1(CCCC=CCCCOC(=O)N3CC[C@@]4(C3)NC(=O)[C@H](CCCCNC(=O)CC[C@@H](C(=O)NC(C)(C)C(N)=O)NC(=O)[C@H](Cc3csc5ccccc35)NC(=O)[C@H](Cc3ccccc3C(F)(F)F)NC4=O)NC(=O)[C@H](Cc3ccccc3)NC(=O)[C@H](C)NC(=O)[C@H](C)NC(=O)[C@H](CN(CC(=O)O)CC(F)(F)F)NC(=O)[C@H](CC(=O)O)NC1=O)NC(=O)[C@H](CC(C)(C)C)NC(=O)[C@H](CC(=O)O)NC2=O` (single isomer, unassigned) [I-127, Ac-PL3-Asp-Npg-B5-Asp-TfeGA-Ala-Ala-Phe-Lys*3-PyrS2-2F3MeF-BztA-GlnR*3-Aib-NH2] yielded an IC50 of 1000 to 5000 nM.

Same assay, conditions: read-out: DLD1 4% Abs IC50; DLD1 reporter, 4%
For `CC(=O)N1CCC[C@]12CC=CCCCC1(CCCC=CCCCOC(=O)N3CC[C@@]4(C3)NC(=O)[C@H](Cc3cn(nn3)CCCC[C@@H](C(=O)N[C@@H](C)C(N)=O)NC(=O)[C@H](Cc3csc5ccccc35)NC(=O)[C@H](Cc3ccsc3)NC4=O)NC(=O)[C@H](Cc3ccccc3)NC(=O)[C@H](C)NC(=O)[C@H](C)NC(=O)[C@H](Cc3cccc(C(=O)O)c3)NC(=O)[C@H](CC(=O)O)NC1=O)NC(=O)[C@H](CC(C)(C)C)NC(=O)[C@H](CC(=O)O)NC2=O` (stereo partly drawn) [I-338, Ac-PL3-Asp-Npg-B5-Asp-3COOHF-Ala-Ala-Phe-sAla*3-PyrS2-3Thi-BztA-TriAzLys*3-Ala-NH2], the IC50 was ≤ 1000 nM. In the case of `CC(=O)N1CCC[C@]12CC=CCCCC1(CCCC=CCCCOC(=O)N3CC[C@@]4(C3)NC(=O)[C@H](CCCCNC(=O)CC[C@@H](C(=O)N[C@@H](CCC(=O)O)C(=O)N[C@@H](C)C(N)=O)NC(=O)[C@H](Cc3csc5ccccc35)NC(=O)[C@H](Cc3ccsc3)NC4=O)NC(=O)[C@H](Cc3ccccc3)NC(=O)[C@H](C)NC(=O)C(C)(C)NC(=O)[C@H](Cc3cccc(C(=O)O)c3)NC(=O)[C@H](CC(=O)O)NC1=O)NC(=O)[C@H](CC(C)(C)C)NC(=O)[C@H](CC(=O)O)NC2=O` (relative stereo) [I-342, Ac-PL3-Asp-Npg-B5-Asp-3COOHF-Aib-Ala-Phe-Lys*3-PyrS2-3Thi-BztA-GlnR*3-Glu-Ala-NH2], the IC50 is reported as ≤ 1000 nM.
